Data published in ChEMBL document CHEMBL1201862, “PubChem BioAssay data set” (2004).
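Method: 48-hour compound exposure of cells in 96-well plates, five concentrations, linear interpolation of endpoints. GI50 = concentration required for 50% inhibition of growth.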 Active and inactive are the calls of the source. Rule as the data show it: active = GI50 up to about 1.1 µM and inactive = higher.

How the values were obtained:
Test in all cases: inhibition of tumour cell growth, NCI panel, 48 h
MDA-MB-435 = system: MDA-MB-435
NCI/ADR-RES = system: NCI/ADR-RES
M14 = system: M14
PC-3 = system: PC-3
T47D = system: T47D
MCF7 = system: MCF7
SF-539 = system: SF-539
A549 = system: A549
Hs-578T = system: Hs-578T
786-0 = system: 786-0
HOP-62 = system: HOP-62
OVCAR-4 = system: OVCAR-4
SNB-78 = system: SNB-78
SNB-19 = system: SNB-19
SK-MEL-2 = system: SK-MEL-2
OVCAR-3 = system: OVCAR-3
UACC-257 = system: UACC-257
UACC-62 = system: UACC-62
K562 = system: K562
UO-31 = system: UO-31

CN(Cc1cnc2nc(N)nc(N)c2n1)c1ccc(C(=O)N[C@@H](CCC(=O)O)C(=O)O)cc1 [METHOTREXATE]
GI50 (MDA-MB-435): 0.0341 µM (active)
GI50 (NCI/ADR-RES): 0.0929 µM (active)
GI50 (M14): 0.0334 µM (active)
GI50 (PC-3): 0.0865 µM (active)
GI50 (T47D): 28 µM (inactive)
GI50 (MCF7): 0.0486 µM (active)
GI50 (SF-539): 0.0375 µM (active)
GI50 (A549): 0.0345 µM (active)
GI50 (Hs-578T): 192 µM (inactive)
GI50 (786-0): 0.034 µM (active)
GI50 (HOP-62): 0.0403 µM (active)
GI50 (OVCAR-4): 59.6 µM (inactive)
GI50 (SNB-78): 117 µM (inactive)
GI50 (SNB-19): 0.59 µM (active)
GI50 (SK-MEL-2): 102 µM (inactive)
GI50 (OVCAR-3): 0.433 µM (active)
GI50 (UACC-257): 0.836 µM (active)
GI50 (UACC-62): 0.0286 µM (active)
GI50 (K562): 0.0285 µM (active)
GI50 (UO-31): 0.227 µM (active)

CC(C)(C)c1ccc2c(c1)S(=O)(=O)Nc1ccc(Cl)cc1NS(=O)(=O)c1cc(C(C)(C)C)ccc1OCCOCCOCCO2
GI50 (M14): 81.7 µM (inactive)
GI50 (SF-539): 23.5 µM (inactive)
GI50 (A549): 25.1 µM (inactive)
GI50 (786-0): 87.3 µM (inactive)
GI50 (HOP-62): 32.3 µM (inactive)
GI50 (OVCAR-4): 5.69 µM (inactive)
GI50 (SNB-78): 30.6 µM (inactive)
GI50 (SNB-19): 62.2 µM (inactive)
GI50 (SK-MEL-2): 45.6 µM (inactive)
GI50 (OVCAR-3): 50.6 µM (inactive)
GI50 (UACC-257): 55.7 µM (inactive)
GI50 (UACC-62): 17.9 µM (inactive)
GI50 (K562): > 100 µM (inactive)
GI50 (UO-31): 53.5 µM (inactive)

O=C(NC1CCCC1=O)c1ccccc1 (stereo not given)
GI50 (M14): > 100 µM (inactive)
GI50 (SF-539): > 100 µM (inactive)
GI50 (A549): > 100 µM (inactive)
GI50 (786-0): > 100 µM (inactive)
GI50 (HOP-62): > 100 µM (inactive)
GI50 (OVCAR-4): > 100 µM (inactive)
GI50 (SNB-78): > 100 µM (inactive)
GI50 (SNB-19): > 100 µM (inactive)
GI50 (SK-MEL-2): > 100 µM (inactive)
GI50 (OVCAR-3): > 100 µM (inactive)
GI50 (UACC-257): > 100 µM (inactive)
GI50 (UACC-62): > 100 µM (inactive)
GI50 (K562): > 100 µM (inactive)
GI50 (UO-31): > 100 µM (inactive)

COC(=O)C1=C(C=O)C2C=CC1C2 (stereo not given)
GI50 (MDA-MB-435): > 100 µM (inactive)
GI50 (NCI/ADR-RES): > 100 µM (inactive)
GI50 (M14): 45.1 µM (inactive)
GI50 (PC-3): > 100 µM (inactive)
GI50 (T47D): > 100 µM (inactive)
GI50 (MCF7): > 100 µM (inactive)
GI50 (SF-539): > 100 µM (inactive)
GI50 (A549): > 100 µM (inactive)
GI50 (Hs-578T): > 100 µM (inactive)
GI50 (786-0): > 92.3 µM (inactive)
GI50 (HOP-62): > 100 µM (inactive)
GI50 (OVCAR-4): > 82.8 µM (inactive)
GI50 (SNB-78): 74.1 µM (inactive)
GI50 (SNB-19): > 100 µM (inactive)
GI50 (SK-MEL-2): > 100 µM (inactive)
GI50 (OVCAR-3): 55.8 µM (inactive)
GI50 (UACC-257): 47.9 µM (inactive)
GI50 (UACC-62): > 93.1 µM (inactive)
GI50 (K562): 34.2 µM (inactive)
GI50 (UO-31): > 100 µM (inactive)

CC(=O)Oc1ccc2c(c1)C(=O)c1nc(C)c(C)nc1C2=O
GI50 (M14): 38.1 µM (inactive)
GI50 (SF-539): 25.8 µM (inactive)
GI50 (A549): 43.7 µM (inactive)
GI50 (786-0): 37.2 µM (inactive)
GI50 (HOP-62): 23.7 µM (inactive)
GI50 (OVCAR-4): 46.3 µM (inactive)
GI50 (SNB-78): 48.2 µM (inactive)
GI50 (SNB-19): > 52.4 µM (inactive)
GI50 (SK-MEL-2): 39.6 µM (inactive)
GI50 (OVCAR-3): 21.4 µM (inactive)
GI50 (UACC-257): 36.6 µM (inactive)
GI50 (UACC-62): 17.5 µM (inactive)
GI50 (K562): 47 µM (inactive)
GI50 (UO-31): > 74.6 µM (inactive)

Cc1ccc(N2C(=O)/C(=C/c3ccc(N(CCC#N)CCC#N)cc3C)N=C2c2cc([N+](=O)[O-])ccc2Cl)cc1
GI50 (M14): > 100 µM (inactive)
GI50 (SF-539): > 100 µM (inactive)
GI50 (A549): > 100 µM (inactive)
GI50 (786-0): > 100 µM (inactive)
GI50 (HOP-62): > 100 µM (inactive)
GI50 (OVCAR-4): > 100 µM (inactive)
GI50 (SNB-78): > 100 µM (inactive)
GI50 (SNB-19): > 100 µM (inactive)
GI50 (SK-MEL-2): > 100 µM (inactive)
GI50 (OVCAR-3): > 100 µM (inactive)
GI50 (UACC-257): > 100 µM (inactive)
GI50 (UACC-62): > 100 µM (inactive)
GI50 (K562): > 100 µM (inactive)
GI50 (UO-31): > 100 µM (inactive)

S=C1CNC(=S)CN1
GI50 (M14): > 100 µM (inactive)
GI50 (SF-539): > 100 µM (inactive)
GI50 (A549): > 100 µM (inactive)
GI50 (786-0): > 100 µM (inactive)
GI50 (HOP-62): > 100 µM (inactive)
GI50 (OVCAR-4): > 100 µM (inactive)
GI50 (SNB-78): > 100 µM (inactive)
GI50 (SNB-19): > 100 µM (inactive)
GI50 (SK-MEL-2): > 100 µM (inactive)
GI50 (OVCAR-3): > 100 µM (inactive)
GI50 (UACC-257): > 100 µM (inactive)
GI50 (UACC-62): > 100 µM (inactive)
GI50 (K562): > 100 µM (inactive)
GI50 (UO-31): > 100 µM (inactive)

CNC(=O)C1CCc2nnc(-c3ccccc3)n21 (stereo not given)
GI50 (M14): > 100 µM (inactive)
GI50 (SF-539): > 100 µM (inactive)
GI50 (A549): > 100 µM (inactive)
GI50 (786-0): > 100 µM (inactive)
GI50 (HOP-62): > 100 µM (inactive)
GI50 (OVCAR-4): > 100 µM (inactive)
GI50 (SNB-78): > 100 µM (inactive)
GI50 (SNB-19): > 100 µM (inactive)
GI50 (SK-MEL-2): > 100 µM (inactive)
GI50 (OVCAR-3): > 100 µM (inactive)
GI50 (UACC-257): > 100 µM (inactive)
GI50 (UACC-62): > 100 µM (inactive)
GI50 (K562): > 100 µM (inactive)
GI50 (UO-31): > 100 µM (inactive)

CC(=O)O[C@H]1C(=O)[C@@]2(C)C(C(OC(=O)c3ccccc3)[C@]3(O)CC(OC(=O)C(O)C(NC(=O)c4ccccc4)c4ccc(C)cc4)C(C)=C1C3(C)C)[C@]1(OC(C)=O)CO[C@@H]1C[C@@H]2O (stereo not given in full)
GI50 (M14): 0.0161 µM (active)
GI50 (SF-539): 0.0106 µM (active)
GI50 (A549): 0.0179 µM (active)
GI50 (786-0): 0.073 µM (active)
GI50 (HOP-62): 0.0995 µM (active)
GI50 (OVCAR-4): 3.75 µM (inactive)
GI50 (SNB-78): 0.507 µM (active)
GI50 (SNB-19): 0.0243 µM (active)
GI50 (SK-MEL-2): 0.0179 µM (active)
GI50 (OVCAR-3): 0.00673 µM (active)
GI50 (UACC-257): 0.0656 µM (active)
GI50 (UACC-62): 0.043 µM (active)
GI50 (K562): 0.0308 µM (active)
GI50 (UO-31): 2 µM (inactive)

O=C(O)c1cc(Cl)cc(NC(=O)C(Cl)Cl)c1Cl
GI50 (M14): > 100 µM (inactive)
GI50 (SF-539): > 100 µM (inactive)
GI50 (A549): > 100 µM (inactive)
GI50 (786-0): > 100 µM (inactive)
GI50 (HOP-62): > 100 µM (inactive)
GI50 (OVCAR-4): > 100 µM (inactive)
GI50 (SNB-78): > 100 µM (inactive)
GI50 (SNB-19): > 100 µM (inactive)
GI50 (SK-MEL-2): > 100 µM (inactive)
GI50 (OVCAR-3): > 100 µM (inactive)
GI50 (UACC-257): > 100 µM (inactive)
GI50 (UACC-62): > 100 µM (inactive)
GI50 (K562): > 100 µM (inactive)
GI50 (UO-31): > 100 µM (inactive)

CC(C)=CC(=O)Cc1nc2ccc([N+](=O)[O-])cc2[nH]c1=O
GI50 (M14): > 100 µM (inactive)
GI50 (SF-539): > 100 µM (inactive)
GI50 (A549): > 100 µM (inactive)
GI50 (786-0): > 100 µM (inactive)
GI50 (HOP-62): > 100 µM (inactive)
GI50 (OVCAR-4): > 100 µM (inactive)
GI50 (SNB-78): > 100 µM (inactive)
GI50 (SNB-19): > 100 µM (inactive)
GI50 (SK-MEL-2): > 100 µM (inactive)
GI50 (OVCAR-3): > 100 µM (inactive)
GI50 (UACC-257): > 100 µM (inactive)
GI50 (UACC-62): > 100 µM (inactive)
GI50 (K562): 83.8 µM (inactive)
GI50 (UO-31): 63.1 µM (inactive)

COc1cc(NS(C)(=O)=O)ccc1Nc1c2ccccc2nc2ccccc12 [AMSACRINE]
GI50 (MDA-MB-435): 4.54 µM (inactive)
GI50 (NCI/ADR-RES): 3.42 µM (inactive)
GI50 (M14): 0.266 µM (active)
GI50 (PC-3): 0.415 µM (active)
GI50 (T47D): 0.441 µM (active)
GI50 (MCF7): 0.103 µM (active)
GI50 (SF-539): 0.207 µM (active)
GI50 (A549): 0.049 µM (active)
GI50 (Hs-578T): 1.79 µM (inactive)
GI50 (786-0): 0.15 µM (active)
GI50 (HOP-62): 0.084 µM (active)
GI50 (OVCAR-4): 4.05 µM (inactive)
GI50 (SNB-78): 3.97 µM (inactive)
GI50 (SNB-19): 0.296 µM (active)
GI50 (SK-MEL-2): 3.7 µM (inactive)
GI50 (OVCAR-3): 2.67 µM (inactive)
GI50 (UACC-257): 2.95 µM (inactive)
GI50 (UACC-62): 0.285 µM (active)
GI50 (K562): 0.902 µM (active)
GI50 (UO-31): 0.661 µM (active)

Nc1ncn(C2C=C(CO)C(O)C2O)c(=O)n1 (stereo not given)
GI50 (M14): > 100 µM (inactive)
GI50 (SF-539): 63.5 µM (inactive)
GI50 (A549): 52.4 µM (inactive)
GI50 (786-0): 63.1 µM (inactive)
GI50 (HOP-62): 35.1 µM (inactive)
GI50 (OVCAR-4): 85.9 µM (inactive)
GI50 (SNB-78): > 100 µM (inactive)
GI50 (SNB-19): > 100 µM (inactive)
GI50 (SK-MEL-2): 94.4 µM (inactive)
GI50 (OVCAR-3): > 100 µM (inactive)
GI50 (UACC-257): > 100 µM (inactive)
GI50 (UACC-62): > 100 µM (inactive)
GI50 (K562): 41.6 µM (inactive)
GI50 (UO-31): 92.7 µM (inactive)
